Measurements taken from patent US10548937B2, “Composition for the treatment of arthropathies and osteoarthritis” (Kolinpharma S.p.A., priority 2014, dated 2020).

What was measured:
Format in all cases: cell-based
human chondrocytes = assay: MTT test (Test 0), cell vitality; settings: overnight incubation, 'likewise' = did not prove toxic
Procedure: (§1) Human chondrocytes (Lonza, cat. N. CC-2550) derived from knee tissue were cultured in Chondrocyte Growth Medium (Lonza, cat. N. CC-3216) prepared according to the manufacturer's instructions with the addition of R3-insulin-like growth factor-1 [R3-IGF-1], human recombinant fibroblast growth factor beta [hrFGF-β], transferrin, insulin, foetal bovine serum [FBS] and gentamicin/amphotericin-B [GA]. The cells were maintained in an incubator at 37° C. and 5% CO2 and seeded every 3-4 days at a density of about 1×10^4 cells/cm^2.
(§2) After about 16-20 hours of incubation, the cells were processed for the various tests.
This colorimetric test is based on the transformation of the tetrazolium salt MTT (yellow) into formazan (violet), by the succinate-tetrazolium reductase system, which belongs to the mitochondrial respiratory chain and is active only in metabolically active cells. […] An insoluble colorant forms during this period, which, after dissolving by adding dissolution solution to the samples (10% SDS in 10 mM HCl) and after incubating overnight in an incubator, may be quantified by reading the absorbance of the samples at 595 nm (using 750 nm as reference wavelength). The measured absorbance correlates directly with the number of live cells.
To exclude a possible toxic effect attributable to the chosen incubation protocol, the cell vitality was quantified by means of an MTT test. […]

[1] = test system: TNFα production by human chondrocytes; assay: ELISA test (Test 1a), TNFα in culture medium
Procedure: as §1, §2
In the “sandwich” ELISA test, a 96-well plate is covered with a monoclonal antibody specific for a given cytokine. […] The addition of a sulfuric acid solution changes the colour of the solution from blue to yellow, blocking the development of the colour and allowing accurate reading of the absorbance of the samples at 450 nm.
For the purposes of the treatment, the medium was harvested and stored at −80° C. until the time of use for the test. […] The concentrations of cytokines released into the culture medium were then expressed as pg of cytokine/mg of total protein of the sample. […]
Release into the culture medium of the pro-inflammatory cytokines TNFα, IL-6 and IL-8 by the human chondrocytes was evaluated both in the absence and in the presence of stimulation with IL-1β for 16 hours. […]

[2] = test system: nuclear translocation of NF-kB in human chondrocytes; assay: Nuclear translocation of NF-kB (Test 1b), immunolabelling and confocal microscope; settings: IL-1β about 20 hours
Procedure: as §1, §2
The chondrocytes were seeded onto 13 mm glass slides and, once they had reached confluence, were incubated overnight with the various treatments. […]
Images of the samples thus prepared were acquired on a confocal microscope (TCS SPE UV, Leica Microsystems) and were analysed with the software ImageJ v1.47h (http://imagej.nih.gov/ij) for the quantification of the nuclear translocation of NF-kB (Noursadeghi M et al., Journal of Immunological Methods, 2008, vol. 329, pages 194-200). […] These masks were then applied to the original NF-kB signals to calculate the fluorescence intensity in the nucleus and in the cytoplasm from the histograms of the intensities created with ImageJ. The mean fluorescence intensity ratio between the nucleus and the cytoplasm was then calculated for each sample.

Compound	toxicity to chondrocytes (MTT, cell vitality) (human chondrocytes; 10 μM)	effect on the production of TNFα ([1]; 10 μM in the culture medium)	effect on the translocation of NF-kB to the nucleus ([2]; celecoxib 10 μM)	toxicity to chondrocytes (MTT, cell vitality) (human chondrocytes; 100 μM)	effect on the production of TNFα ([1]; 100 μM in the culture medium)	effect on the translocation of NF-kB to the nucleus ([2]; diclofenac 100 μM)
Cc1ccc(-c2cc(C(F)(F)F)nn2-c2ccc(S(N)(=O)=O)cc2)cc1 [celecoxib]	likewise for the incubation with the positive controls	no effect	no significant effect			
O=C(O)Cc1ccccc1Nc1c(Cl)cccc1Cl [diclofenac]				likewise for the incubation with the positive controls	no effect	no significant effect
